Measurements: publication PMC7206119, “RIP1 inhibition blocks inflammatory diseases but not tumor growth or metastases” (Cell Death and Differentiation, 2019)

What was measured:
Assay in all cases: biochemical
Set-up in all cases: DiscoverX kinase panel, active-site competition binding (KINOMEscan type), percent of control at one concentration
Settings in all cases: competition binding, percent of control
MET = MET (Homo sapiens, UniProt P08581)
PIKFYVE = PIKFYVE (Homo sapiens, UniProt Q9Y2I7)
YSK1 = target: T1, YSK1 (Homo sapiens, UniProt O00506)
T1 construct: gene STK25

LKB1 = target: T2, LKB1 (Homo sapiens, UniProt Q15831)
T2 construct: gene STK11

SLK = SLK (Homo sapiens, UniProt Q9H2G2)
EPHB1 = EPHB1 (Homo sapiens, UniProt P54762)
PHKG1 = PHKG1 (Homo sapiens, UniProt Q16816)
Chain of PHKG1 (Q16816 whole entry): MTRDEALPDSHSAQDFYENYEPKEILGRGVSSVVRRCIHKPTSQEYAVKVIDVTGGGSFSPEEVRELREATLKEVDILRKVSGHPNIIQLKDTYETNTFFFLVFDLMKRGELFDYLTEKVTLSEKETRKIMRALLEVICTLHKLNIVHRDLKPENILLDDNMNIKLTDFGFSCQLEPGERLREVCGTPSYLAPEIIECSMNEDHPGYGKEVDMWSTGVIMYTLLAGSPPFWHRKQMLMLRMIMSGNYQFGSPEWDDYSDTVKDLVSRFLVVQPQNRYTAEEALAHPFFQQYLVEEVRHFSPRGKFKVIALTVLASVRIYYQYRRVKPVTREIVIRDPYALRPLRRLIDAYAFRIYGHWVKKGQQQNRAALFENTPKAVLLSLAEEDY

LIMK2 = LIMK2 (Homo sapiens, UniProt P53671)
KIT(L576P) = KIT(L576P) (Homo sapiens, UniProt P10721, L576P)
PIP5K2C = target: T3, PIP5K2C (Homo sapiens, UniProt Q8TBX8)
T3 construct: gene PIP4K2C

CAMKK1 = CAMKK1 (Homo sapiens, UniProt Q8N5S9)
CDKL5 = CDKL5 (Homo sapiens, UniProt O76039)
Chain of CDKL5 (O76039 whole entry): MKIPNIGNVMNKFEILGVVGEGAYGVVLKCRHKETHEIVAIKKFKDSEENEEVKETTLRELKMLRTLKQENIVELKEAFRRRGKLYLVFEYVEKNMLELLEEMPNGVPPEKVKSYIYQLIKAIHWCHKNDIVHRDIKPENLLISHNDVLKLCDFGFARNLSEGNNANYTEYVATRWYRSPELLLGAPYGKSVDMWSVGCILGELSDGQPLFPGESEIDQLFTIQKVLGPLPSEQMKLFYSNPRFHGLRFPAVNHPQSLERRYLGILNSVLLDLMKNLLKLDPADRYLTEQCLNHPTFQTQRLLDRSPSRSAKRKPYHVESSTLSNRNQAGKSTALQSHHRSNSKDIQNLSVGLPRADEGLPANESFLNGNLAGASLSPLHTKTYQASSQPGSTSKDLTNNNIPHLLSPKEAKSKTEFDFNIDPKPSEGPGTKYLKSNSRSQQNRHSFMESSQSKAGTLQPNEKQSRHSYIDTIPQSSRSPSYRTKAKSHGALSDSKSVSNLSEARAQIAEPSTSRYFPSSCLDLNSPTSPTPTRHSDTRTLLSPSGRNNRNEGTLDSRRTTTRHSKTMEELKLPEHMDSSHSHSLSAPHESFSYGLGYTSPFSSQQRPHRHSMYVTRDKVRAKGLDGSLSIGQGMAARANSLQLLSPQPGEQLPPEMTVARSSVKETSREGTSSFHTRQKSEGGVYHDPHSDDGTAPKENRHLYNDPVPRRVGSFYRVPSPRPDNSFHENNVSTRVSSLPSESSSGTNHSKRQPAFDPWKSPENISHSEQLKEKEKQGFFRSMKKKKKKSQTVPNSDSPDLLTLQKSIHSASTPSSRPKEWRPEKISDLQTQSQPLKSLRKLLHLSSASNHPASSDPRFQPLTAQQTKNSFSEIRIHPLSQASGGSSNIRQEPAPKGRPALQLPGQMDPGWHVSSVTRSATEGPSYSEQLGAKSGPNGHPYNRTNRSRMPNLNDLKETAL

CSF1R-autoinhibited = CSF1R-autoinhibited (Homo sapiens, UniProt P07333)
Chain of CSF1R-autoinhibited (P07333 whole entry): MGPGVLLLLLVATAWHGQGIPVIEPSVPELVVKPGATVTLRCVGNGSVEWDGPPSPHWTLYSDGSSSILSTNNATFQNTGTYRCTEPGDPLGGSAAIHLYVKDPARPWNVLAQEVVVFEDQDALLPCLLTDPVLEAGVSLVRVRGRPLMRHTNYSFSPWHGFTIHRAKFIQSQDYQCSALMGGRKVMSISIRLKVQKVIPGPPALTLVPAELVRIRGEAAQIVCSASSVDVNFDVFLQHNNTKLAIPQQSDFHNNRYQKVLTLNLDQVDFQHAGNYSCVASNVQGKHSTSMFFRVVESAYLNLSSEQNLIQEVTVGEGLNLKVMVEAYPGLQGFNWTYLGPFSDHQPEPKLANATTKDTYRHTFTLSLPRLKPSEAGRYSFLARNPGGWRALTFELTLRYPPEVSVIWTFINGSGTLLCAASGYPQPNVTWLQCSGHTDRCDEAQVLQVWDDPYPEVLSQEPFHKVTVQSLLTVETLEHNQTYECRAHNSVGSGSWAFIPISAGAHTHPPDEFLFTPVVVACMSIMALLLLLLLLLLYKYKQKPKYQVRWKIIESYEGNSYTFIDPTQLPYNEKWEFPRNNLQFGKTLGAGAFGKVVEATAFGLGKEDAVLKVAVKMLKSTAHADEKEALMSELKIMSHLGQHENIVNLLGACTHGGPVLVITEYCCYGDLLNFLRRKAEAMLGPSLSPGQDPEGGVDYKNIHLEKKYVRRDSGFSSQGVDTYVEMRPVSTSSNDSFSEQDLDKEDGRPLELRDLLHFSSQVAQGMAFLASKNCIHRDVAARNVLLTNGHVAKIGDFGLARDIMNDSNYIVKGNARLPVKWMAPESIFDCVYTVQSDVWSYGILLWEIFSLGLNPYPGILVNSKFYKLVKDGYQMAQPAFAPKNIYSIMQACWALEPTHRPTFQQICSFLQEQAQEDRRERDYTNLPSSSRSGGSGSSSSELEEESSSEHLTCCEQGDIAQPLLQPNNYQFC

GCN2(Kin.Dom.2,S808G) = target: T4, GCN2(Kin.Dom.2,S808G) (Homo sapiens, UniProt Q9P2K8, S808G)
T4 construct: gene EIF2AK4; Kin.Dom.2

MLK1 = target: T5, MLK1 (Homo sapiens, UniProt P80192)
T5 construct: gene MAP3K9

TNNI3K = TNNI3K (Homo sapiens, UniProt Q59H18)
MAP3K4 = MAP3K4 (Homo sapiens, UniProt Q9Y6R4)
PIK3CB = PIK3CB (Homo sapiens, UniProt P42338)
[1] = target: T6, ABL1(F317I)-phosphorylated (Homo sapiens, UniProt P00519, F317I)
T6 construct: phosphorylated
T6 sequence (P00519 whole entry F317I): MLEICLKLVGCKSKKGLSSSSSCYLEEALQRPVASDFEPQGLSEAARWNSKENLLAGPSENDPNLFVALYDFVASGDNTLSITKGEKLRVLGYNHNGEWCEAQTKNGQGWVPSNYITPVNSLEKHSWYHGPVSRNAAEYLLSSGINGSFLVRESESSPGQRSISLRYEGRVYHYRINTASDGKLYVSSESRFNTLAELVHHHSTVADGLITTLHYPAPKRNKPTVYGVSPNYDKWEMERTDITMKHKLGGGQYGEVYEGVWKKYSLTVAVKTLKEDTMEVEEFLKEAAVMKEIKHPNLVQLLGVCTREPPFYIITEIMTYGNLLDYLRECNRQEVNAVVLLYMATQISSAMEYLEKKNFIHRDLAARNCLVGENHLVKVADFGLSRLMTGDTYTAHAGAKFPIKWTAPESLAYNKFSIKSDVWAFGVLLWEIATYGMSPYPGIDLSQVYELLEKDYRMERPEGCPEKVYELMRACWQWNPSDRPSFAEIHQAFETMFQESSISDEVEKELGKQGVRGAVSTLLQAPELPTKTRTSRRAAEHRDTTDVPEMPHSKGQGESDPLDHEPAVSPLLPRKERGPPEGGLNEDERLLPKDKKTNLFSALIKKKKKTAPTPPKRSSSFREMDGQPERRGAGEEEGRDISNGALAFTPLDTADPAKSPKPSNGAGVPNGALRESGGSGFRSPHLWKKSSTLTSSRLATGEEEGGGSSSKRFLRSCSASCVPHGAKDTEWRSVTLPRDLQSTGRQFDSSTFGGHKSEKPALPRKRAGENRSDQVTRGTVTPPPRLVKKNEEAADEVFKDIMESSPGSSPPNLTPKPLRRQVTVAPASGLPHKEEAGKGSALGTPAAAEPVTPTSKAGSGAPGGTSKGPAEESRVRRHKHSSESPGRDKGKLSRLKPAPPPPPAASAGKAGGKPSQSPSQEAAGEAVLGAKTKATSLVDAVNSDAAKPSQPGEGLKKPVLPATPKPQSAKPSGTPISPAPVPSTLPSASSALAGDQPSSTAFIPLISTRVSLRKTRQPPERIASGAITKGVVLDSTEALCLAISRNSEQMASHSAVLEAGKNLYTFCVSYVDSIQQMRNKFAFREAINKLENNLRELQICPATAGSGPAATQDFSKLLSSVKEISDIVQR

EPHB6 = EPHB6 (Homo sapiens, UniProt O15197)
GAK = GAK (Homo sapiens, UniProt O14976)
Chain of GAK (O14976 whole entry): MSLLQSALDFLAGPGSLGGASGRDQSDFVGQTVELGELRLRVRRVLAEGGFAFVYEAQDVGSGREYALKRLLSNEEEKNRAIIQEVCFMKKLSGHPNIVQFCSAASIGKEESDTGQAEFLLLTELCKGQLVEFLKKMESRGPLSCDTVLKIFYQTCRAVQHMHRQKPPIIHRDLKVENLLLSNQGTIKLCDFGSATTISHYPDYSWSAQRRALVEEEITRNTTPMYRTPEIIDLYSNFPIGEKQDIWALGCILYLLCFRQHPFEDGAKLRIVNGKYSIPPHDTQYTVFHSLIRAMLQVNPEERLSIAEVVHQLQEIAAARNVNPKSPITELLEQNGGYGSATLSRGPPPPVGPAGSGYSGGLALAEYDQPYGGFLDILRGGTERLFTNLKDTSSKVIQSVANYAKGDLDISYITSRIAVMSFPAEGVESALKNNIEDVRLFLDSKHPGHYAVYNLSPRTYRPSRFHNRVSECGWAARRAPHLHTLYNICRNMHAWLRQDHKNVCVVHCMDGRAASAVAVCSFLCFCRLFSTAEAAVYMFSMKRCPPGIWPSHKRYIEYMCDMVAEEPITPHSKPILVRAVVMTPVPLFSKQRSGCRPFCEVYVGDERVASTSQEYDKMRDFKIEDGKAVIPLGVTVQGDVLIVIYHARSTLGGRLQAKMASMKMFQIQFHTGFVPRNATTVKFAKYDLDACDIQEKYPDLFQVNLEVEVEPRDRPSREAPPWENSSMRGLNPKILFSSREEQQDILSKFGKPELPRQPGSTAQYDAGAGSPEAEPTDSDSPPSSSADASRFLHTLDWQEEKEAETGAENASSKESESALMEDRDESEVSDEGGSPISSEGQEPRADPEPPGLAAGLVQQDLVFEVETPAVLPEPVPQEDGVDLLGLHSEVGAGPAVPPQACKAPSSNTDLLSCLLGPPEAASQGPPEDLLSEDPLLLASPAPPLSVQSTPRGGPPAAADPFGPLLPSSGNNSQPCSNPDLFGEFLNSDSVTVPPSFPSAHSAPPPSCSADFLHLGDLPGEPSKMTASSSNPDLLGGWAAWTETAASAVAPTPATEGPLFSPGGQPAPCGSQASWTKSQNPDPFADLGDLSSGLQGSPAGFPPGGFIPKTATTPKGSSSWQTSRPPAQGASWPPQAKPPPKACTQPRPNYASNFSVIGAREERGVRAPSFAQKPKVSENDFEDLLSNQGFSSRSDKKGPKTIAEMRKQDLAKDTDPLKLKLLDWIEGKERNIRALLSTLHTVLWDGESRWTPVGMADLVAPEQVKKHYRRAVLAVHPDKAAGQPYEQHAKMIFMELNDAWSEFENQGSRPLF

COc1cc2c(cn1)N(C)C(=O)[C@@H](NC(=O)c1nc3n(n1)[C@H](c1ccccc1)CC3)CC2 [GNE684, (S)-N-((S)-7-methoxy-1-methyl-2-oxo-2,3,4,5-tetrahydro-1H-pyrido[3,4-b]azepin-3-yl)-5-phenyl-6,7-dihydro-5H-pyrrolo[1,2-b][1,2,4]triazole-2-carboxamide]
remaining binding at 10 µM (MET): 73% | remaining binding at 10 µM (PIKFYVE): 100% | remaining binding at 10 µM (YSK1): 90% | remaining binding at 10 µM (LKB1): 100% | remaining binding at 10 µM (SLK): 100% | remaining binding at 10 µM (EPHB1): 100% | remaining binding at 10 µM (PHKG1): 77% | remaining binding at 10 µM (LIMK2): 32% | remaining binding at 10 µM (KIT(L576P)): 100% | remaining binding at 10 µM (PIP5K2C): 76% | remaining binding at 10 µM (CAMKK1): 99% | remaining binding at 10 µM (CDKL5): 79% | remaining binding at 10 µM (CSF1R-autoinhibited): 94% | remaining binding at 10 µM (GCN2(Kin.Dom.2,S808G)): 100% | remaining binding at 10 µM (MLK1): 99% | remaining binding at 10 µM (TNNI3K): 100% | remaining binding at 10 µM (MAP3K4): 92% | remaining binding at 10 µM (PIK3CB): 100% | remaining binding at 10 µM [1]: 100% | remaining binding at 10 µM (EPHB6): 100% | remaining binding at 10 µM (GAK): 92%
